# Test results reported in patent publication US20230391772A1, “METHODS AND COMPOSITIONS FOR TARGETED PROTEIN DEGRADATION” (Ranok Therapeutics (Hangzhou) Co. Ltd., priority 2020, published 2023).
# Columns and labels:
# [1] = biological target: T1, HSP90a protein (Homo sapiens, UniProt P07900); assay: HSP90α-binding fluorescent polarization (FP) assay, BODIPY-labeled RNK04010 probe; conditions: FP competition with RNK04010 (BODIPY-labeled), 5 nM, 300 min at 25° C.
# T1 construct: purchased BPS Bioscience 50298
# Summary of the method: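 Test compounds (2.5-fold serial dilution, 20 μM to 5.2 nM) competed with a fluorescent tracer for N-terminal HSP90a, with fluorescence polarization as the read-out. FITC-geldanamycin tracer was used at 5 nM final with 120 min incubation at 25° C; BODIPY-labeled RNK04010 was used at 5 nM final with 300 min incubation.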
# [2] = test system: MIA PaCa-2 human pancreatic carcinoma; assay: MIA PaCa-2 CCK-8 proliferation assay; format: cell-based; conditions: Homo sapiens, MIA PaCa-2, 72 h, MIA PaCa-2 cells
# Summary of the method: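 Proliferation of mutant-KRAS(G12C) cells (2 copies in MIA PaCa-2, single copy in NCI-H358/NCI-H23) measured with CCK-8 after treatment across 20 μM–1.02 nM; inhibition expressed relative to vehicle-treated wells after subtracting no-cell background.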
# [3] = biological target: KRAS(G12C) (Homo sapiens, UniProt P01116, G12C); assay: KRAS(G12C)/SOS1 homogeneous time-resolved fluorescence (HTRF) assay; parameters: purchased Cisbio 63ADK000CB16PEG; conditions: absence of GTP, 4° C. for 3 hr, read-out: KRAS (G12C) binding
# Summary of the method: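 HTRF kit measuring compound-induced block of KRAS(G12C)-SOS1 interaction without GTP. Compounds tested as 3-fold serial dilutions down to 1.02 nM, incubated with reaction components 3 h at 4 °C in sealed plates before fluorescence read.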
# Chain of KRAS(G12C) (P01116 1-188 isoform P01116-2 G12C): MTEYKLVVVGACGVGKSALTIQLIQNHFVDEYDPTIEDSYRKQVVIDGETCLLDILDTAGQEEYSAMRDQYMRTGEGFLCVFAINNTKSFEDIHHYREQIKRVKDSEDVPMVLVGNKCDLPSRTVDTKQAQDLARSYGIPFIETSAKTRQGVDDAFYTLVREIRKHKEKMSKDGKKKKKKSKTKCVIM
IC50 [1] [nM],EC50 [2] [nM],IC50 [3] [nM],Compound
< 100,< 100,< 100,"C=CC(=O)N1CCN(c2nc(OC[C@@H]3C[C@H](N4CCC(C(=O)N5CCN(Cc6ccc(-n7c(C(=O)NCC(F)(F)F)nnc7-c7cc(C(C)C)c(O)cc7O)cc6)CC5)CC4)CN3C)nc3c2CCN(c2cccc4cccc(Cl)c24)C3)C[C@@H]1CC#N [Compound 314, 4-{4-[(4-{1-[(3S,5S)-5-({[7-(8-chloronaphthalen-1-yl)-4-[(3S)-3-(cyanomethyl)-4-(prop-2-enoyl)piperazin-1-yl]-5H,6H,8H-pyrido[3,4-d]pyrimidin-2-yl]oxy}methyl)-1-methylpyrrolidin-3-yl]piperidine-4-carbonyl}piperazin-1-yl)methyl]phenyl}-5-(2,4-dihydroxy-5-isopropylphenyl)-N-(2,2,2-trifluoroethyl)-1,2,4-triazole-3-carboxamide]"
< 100,100 to 1000,100 to 1000,"C=CC(=O)N1CCN(c2nc(OC[C@@H]3C[C@H](N(C)CCC(=O)N4CCN(Cc5ccc(-n6c(C(=O)NCC(F)(F)F)nnc6-c6cc(C(C)C)c(O)cc6O)cc5)CC4)CN3C)nc3c2CCN(c2cccc4cccc(Cl)c24)C3)C[C@@H]1CC#N [Compound 337, 4-(4-{[4-(3-{[(3S,5S)-5-({[7-(8-chloronaphthalen-1-yl)-4-[(3S)-3-(cyanomethyl)-4-(prop-2-enoyl)piperazin-1-yl]-5H,6H,8H-pyrido[3,4-d]pyrimidin-2-yl]oxy}methyl)-1-methylpyrrolidin-3-yl](methyl)amino}propanoyl)piperazin-1-yl]methyl}phen-yl)-5-(2,4-dihydroxy-5-isopropylphenyl)-N-(2,2,2-trifluoroethyl)-1,2,4-triazole-3-carboxamide]"
< 100,> 1000,100 to 1000,"C=CC(=O)N1CCN(c2nc(OC[C@@H]3CN(C(=O)C4CCN(Cc5ccc(-n6c(O)nnc6-c6cc(C)c(O)cc6O)cc5)CC4)CCN3C)nc3c2CCN(c2cccc4cccc(Cl)c24)C3)C[C@@H]1CC#N [Compound 203, 2-((S)-1-acryloyl-4-(7-(8-chloronaphthalen-1-yl)-2-(((S)-4-(1-(4-(3-(2,4-dihydroxy-5-methylphenyl)-5-hydroxy-4H-1,2,4-triazol-4-yl)benzyl)piperidine-4-carbonyl)-1-methylpiperazin-2-yl)methoxy)-5,6,7,8-tetrahydropyrido[3,4-d]pyrimidin-4-yl)piperazin-2-yl)acetonitrile, trifluoroacetic acid]"
< 100,> 1000,< 100,"C=CC(=O)N1CCN(c2nc(OC[C@@H]3CC[C@H](C(=O)N4CCN(Cc5ccc(-n6c(O)nnc6-c6cc(C)c(O)cc6O)cc5)CC4)N3C)nc3c2CCN(c2cccc4cccc(Cl)c24)C3)C[C@@H]1CC#N [Compound 325, 2-[(2S)-4-[7-(8-chloronaphthalen-1-yl)-2-{[(2S,5R)-5-[4-({4-[3-(2,4-dihydroxy-5-methylphenyl)-5-hydroxy-1,2,4-triazol-4-yl]phenyl}methyl)piperazine-1-carbonyl]-1-methylpyrrolidin-2-yl]methoxy}-5H,6H,8H-pyrido[3,4-d]pyrimidin-4-yl]-1-(prop-2-enoyl)piperazin-2-yl]acetonitrile]"
< 100,> 1000,< 100,"C=CC(=O)N1CCN(c2nc(OCCN3CCC4(CC3)CCN(C(=O)C3CCN(Cc5ccc(-n6c(O)nnc6-c6cc(C(C)C)c(O)cc6O)cc5)CC3)CC4)nc3c2CCN(c2cccc4cccc(Cl)c24)C3)C[C@@H]1CC#N [Compound 218, (S)-2-(1-acryloyl-4-(7-(8-chloronaphthalen-1-yl)-2-(2-(9-(1-(4-(3-(2,4-dihydroxy-5-isopropylphenyl)-5-hydroxy-4H-1,2,4-triazol-4-yl)benzyl)piperidine-4-carbonyl)-3,9-diazaspiro[5.5]undecan-3-yl)ethoxy)-5,6,7,8-tetrahydropyrido[3,4-d]pyrimidin-4-yl)piperazin-2-yl)acetonitrile]"
< 100,< 100,< 100,C=CC(=O)N1CCN(c2nc(OC[C@@H]3C[C@H](N4CCC(C(=O)N5CCN(Cc6ccc(-n7c(C(=O)NCC(F)(F)C(F)(F)F)nnc7-c7cc(C(C)C)c(O)cc7O)cc6)CC5)CC4)CN3C)nc3c2CCN(c2cccc4cccc(Cl)c24)C3)C[C@@H]1CC#N [Compound 323]
< 100,100 to 1000,< 100,"C=CC(=O)N1CCN(c2nc(OC[C@@H]3C[C@H](C(=O)N4CCN(CCNC(=O)c5nnc(-c6cc(C(C)C)c(O)cc6O)n5-c5ccccc5)CC4)CN3C)nc3c2CCN(c2cccc4cccc(Cl)c24)C3)C[C@@H]1CC#N [Compound 343, N-(2-{4-[(3S,5S)-5-({[7-(8-chloronaphthalen-1-yl)-4-[(3S)-3-(cyanomethyl)-4-(pr-op-2-enoyl)piperazin-1-yl]-5H,6H,8H-pyrido[3,4-d]pyrimidin-2-yl]oxy}methyl)-1-methylpyrrolidine-3-carbonyl]piperazin-1-yl}ethyl)-5-(2,4-dihydroxy-5-isopropylphenyl)-4-phenyl-1,2,4-triazole-3-carboxamide]"
< 100,100 to 1000,100 to 1000,"C=CC(=O)N1CCN(c2nc(OC[C@@H]3C[C@@H](NC(=O)C4CCN(Cc5ccc(-n6c(O)nnc6-c6cc(C(C)C)c(O)cc6O)cc5)CC4)CN3C)nc3c2CCN(c2cccc4cccc(Cl)c24)C3)C[C@@H]1CC#N [Compound 205, N-((3R,5S)-5-(((4-((S)-4-acryloyl-3-(cyanomethyl)piperazin-1-yl)-7-(8-chloronaphthalen-1-yl)-5,6,7,8-tetrahydropyrido[3,4-d]pyrimidin-2-yl)oxy)methyl)-1-methylpyrrolidin-3-yl)-1-(4-(3-(2,4-dihydroxy-5-isopropylphenyl)-5-hydroxy-4H-1,2,4-triazol-4-yl)benzyl)piperidine-4-carboxamide]"
< 100,> 1000,100 to 1000,"C=CC(=O)N1CCN(c2nc(OCC3CCC(CNCc4ccc(-n5c(O)nnc5-c5cc(CC)c(O)cc5O)cc4)N3)nc3c2CCN(c2cccc4cccc(Cl)c24)C3)C[C@@H]1CC#N (stereo partly drawn) [Compound 299, 2-((2S)-1-acryloyl-4-(7-(8-chloronaphthalen-1-yl)-2-((5-(((4-(3-(5-ethyl-2,4-dihydroxyphenyl)-5-hydroxy-4H-1,2,4-triazol-4-yl)benzyl)amino)methyl)pyrrolidin-2-yl)methoxy)-5,6,7,8-tetrahydropyrido[3,4-d]pyrimidin-4-yl)piperazin-2-yl)acetonitrile]"
< 100,100 to 1000,> 1000,"C=CC(=O)N1CCN(c2nc(OC[C@@H]3CCCN(C(=O)C4CCN(Cc5ccc(-n6c(O)nnc6-c6cc(C(C)C)c(O)cc6O)cc5)CC4)C3)nc3c2CCN(c2cccc4cccc(Cl)c24)C3)C[C@@H]1CC#N [Compound 293, 2-((S)-1-acryloyl-4-(7-(8-chloronaphthalen-1-yl)-2-(((R)-1-(1-(4-(3-(2,4-dihydroxy-5-isopropylphenyl)-5-hydroxy-4H-1,2,4-triazol-4-yl)benzyl)piperidine-4-carbonyl)piperidin-3-yl)methoxy)-5,6,7,8-tetrahydropyrido[3,4-d]pyrimidin-4-yl)piperazin-2-yl)acetonitrile]"
< 100,> 1000,100 to 1000,"C=CC(=O)N1CCN(c2nc(OC[C@@H]3CC[C@H](COC(=O)NCc4ccc(-n5c(O)nnc5-c5cc(CC)c(O)cc5O)cc4)N3C)nc3c2CCN(c2cccc4cccc(Cl)c24)C3)C[C@@H]1CC#N [Compound 296, ((2R,5S)-5-(((4-((S)-4-acryloyl-3-(cyanomethyl)piperazin-1-yl)-7-(8-chloronaphthalen-1-yl)-5,6,7,8-tetrahydropyrido[3,4-d]pyrimidin-2-yl)oxy)methyl)-1-methylpyrrolidin-2-yl)methyl4-(3-(5-ethyl-2,4-dihydroxyphenyl)-5-hydroxy-4H-1,2,4-triazol-4-yl)benzylcarbamate]"
< 100,100 to 1000,100 to 1000,"C=CC(=O)N1CCN(c2nc(OC[C@@H]3C[C@@H](OCC(=O)N4CCC(Cc5ccc(-n6c(C(=O)NCC(F)(F)F)nnc6-c6cc(C(C)C)c(O)cc6O)cc5)CC4)CN3C)nc3c2CCN(c2cccc4cccc(Cl)c24)C3)C[C@@H]1CC#N [Compound 303, 4-(4-((1-(2-(((3R,5S)-5-(((4-((S)-4-acryloyl-3-(cyanomethyl)piperazin-1-yl)-7-(8-chloronaphthalen-1-yl)-5,6,7,8-tetrahydropyrido[3,4-d]pyrimidin-2-yl)oxy)methyl)-1-methylpyrrolidin-3-yl)oxy)acetyl)piperidin-4-yl)methyl)phenyl)-5-(2,4-dihydroxy-5-isopropylphenyl)-N-(2,2,2-trifluoroethyl)-4H-1,2,4-triazole-3-carboxamide]"
< 100,> 1000,> 1000,"C=CC(=O)N1CCN(c2nc(OCC3CCC(COCC(=O)N4CCN(Cc5ccc(-n6c(O)nnc6-c6cc(CC)c(O)cc6O)cc5)CC4)N3)nc3c2CCN(c2cccc4cccc(Cl)c24)C3)C[C@@H]1CC#N (stereo partly drawn) [Compound 297, 2-((2S)-1-acryloyl-4-(7-(8-chloronaphthalen-1-yl)-2-((5-((2-(4-(4-(3-(5-ethyl-2,4-dihydroxyphenyl)-5-hydroxy-4H-1,2,4-triazol-4-yl)benzyl)piperazin-1-yl)-2-oxoethoxy)methyl)pyrrolidin-2-yl)methoxy)-5,6,7,8-tetrahydropyrido[3,4-d]pyrimidin-4-yl)piperazin-2-yl)acetonitrile]"
